Values quoted from earlier work as cited in PMC3185201 (Molecular pharmaceutics, 2011).

Tested on: NEP 24.11
Conditions: prior study

SMILES: CC[C@H](C)[C@H](NC(=O)[C@H](Cc1ccccc1)NC(=O)[C@H](CCC(=O)O)NC(=O)[C@H](CCCCN)NC(=O)[C@H](C)NC(=O)[C@H](C)NC(=O)[C@H](CCC(N)=O)NC(=O)[C@@H]1CCCCNC(=O)CC[C@H](NC(=O)[C@H](CO)NC(=O)[C@@H](NC(=O)[C@H](CC(=O)O)NC(=O)[C@H](CO)NC(=O)[C@@H](NC(=O)[C@H](Cc2ccccc2)NC(=O)[C@@H](NC(=O)CNC(=O)[C@H](CCC(=O)O)NC(=O)C(C)(C)NC(=O)[C@@H](N)Cc2c[nH]cn2)[C@@H](C)O)[C@@H](C)O)C(C)C)C(=O)N[C@@H](Cc2ccc(O)cc2)C(=O)N[C@@H](CC(C)C)C(=O)N[C@@H](CCC(=O)O)C(=O)N1)C(=O)N[C@H]1CCC(=O)NCCCC[C@@H](C(=O)NCC(=O)N[C@@H](CCCNC(=N)N)C(=O)NCCCCCC(=O)N[C@@H](CS)C(N)=O)NC(=O)[C@H](C(C)C)NC(=O)[C@H](CC(C)C)NC(=O)[C@H](Cc2c[nH]c3ccccc23)NC1=O [EM3106B]
- Protection from the degradation by NEP 24.11: outstanding protection
